# Laboratory results reported in BindingDB's records for doi:10.1016/j.bmc.2004.12.045 (Cnrs, 2005).
# Where a name gives a salt, the structure may show the parent alone.
# Target: Glycogen synthase kinase-3 beta (Sus scrofa)
# Test: Kinase activities were assayed in buffers containing substrate, enzyme, and inhibitor at 30 °C in the presence of 15 uM ATP/ [gamma-32P] ATP. 32P incorporation was measured with a scintillation counter. The IC50 is the inhibitor concentration, which inhibits 50% of kinase activity that catalyzes the transfer of the terminal phosphate from 32P l
# Conditions: pH 7.5
row,SMILES,IC50
1,"Cc1c2c(c(CN)c3c4ccccc4n(COCC[Si](C)(C)C)c13)C(=O)N(C)C2=O [10-(aminomethyl)-2,4-dimethyl-5-{[2-(trimethylsilyl)ethoxy]methyl}-1H,2H,3H,5H-pyrrolo[3,4-b]carbazole-1,3-dione]",> 10 µM
2,"Cc1nc2c(c3c1[nH]c1ccccc13)CN(CCN(C)C)C2=O [2-(2-Dimethylaminoethyl)-5-methyl-1,2-di-hydro-6H-2,4,6-triaza-cyclopenta[c]fluoren-3-one]",> 10 µM
3,"O=C1c2nc(-c3ccccc3)c3[nH]c4ccccc4c3c2CN1Cc1ccccc1 [2-Benzyl-5-phenyl-1,2-dihydro-6H-2,4,6-triazacyclopenta[c]fluoren-3-one]",> 10 µM
4,"Cc1cc2c(c3c1[nH]c1ccccc13)CNC2=O [8-methyl-4,10-diazatetracyclo[7.7.0.0^{2,6}.0^{11,16}]hexadeca-1(9),2(6),7,11(16),12,14-hexaen-5-one]",> 10 µM
5,"Cc1nc2c(c3c1[nH]c1ccccc13)CNC2=O [5-Methyl-1,2-dihydro-6H-2,4,6-triaza-cyclopenta[c]fluoren-3-one]",> 10 µM
6,"Cc1c2c(c(CNC(=O)CCN(C)C)c3c4ccccc4n(COCC[Si](C)(C)C)c13)C(=O)N(C)C2=O [N-[(2,4-dimethyl-1,3-dioxo-5-{[2-(trimethylsilyl)ethoxy]methyl}-1H,2H,3H,5H-pyrrolo[3,4-b]carbazol-10-yl)methyl]-3-(dimethylamino)propanamide]",> 10 µM
7,"Cc1c2c(c(CNC(=O)CN(C)C)c3c1[nH]c1ccccc13)C(=O)N(C)C2=O [{[({2,4-dimethyl-1,3-dioxo-1H,2H,3H,5H-pyrrolo[3,4-b]carbazol-10-yl}methyl)carbamoyl]methyl}dimethylazanium chloride]",> 10 µM
8,"Cc1c2c(c(CNC(=O)CN(C)C)c3c4ccccc4n(COCC[Si](C)(C)C)c13)C(=O)N(Cc1ccccc1)C2=O [N-[(2-benzyl-4-methyl-1,3-dioxo-5-{[2-(trimethylsilyl)ethoxy]methyl}-1H,2H,3H,5H-pyrrolo[3,4-b]carbazol-10-yl)methyl]-2-(dimethylamino)acetamide]",> 10 µM
9,"Cc1cc2c(c3c4ccccc4n(COCC[Si](C)(C)C)c13)CNC2=O [5-Methyl-6-(2-trimethylsilanyl-ethoxymethyl)-1,2-dihydro-6H-pyrrolo[3,4-c]carbazol-3-one]",> 10 µM
10,"Cc1c2c(c(CNC(=O)CCN(C)C)c3c4ccccc4n(COCC[Si](C)(C)C)c13)C(=O)N(Cc1ccccc1)C2=O [N-[(2-benzyl-4-methyl-1,3-dioxo-5-{[2-(trimethylsilyl)ethoxy]methyl}-1H,2H,3H,5H-pyrrolo[3,4-b]carbazol-10-yl)methyl]-3-(dimethylamino)propanamide]",> 10 µM
11,"Cc1cc2c(c3c4ccccc4n(COCC[Si](C)(C)C)c13)C(=O)N(CCN(C)C)C2=O [2-[2-(dimethylamino)ethyl]-5-methyl-6-{[2-(trimethylsilyl)ethoxy]methyl}pyrrolo[3,4-c]carbazole-1,3(2H,6H)-dione]",> 10 µM
12,"Cc1c2c(c(C#N)c3c4ccccc4n(COCC[Si](C)(C)C)c13)C(=O)N(C)C2=O [2,4-dimethyl-1,3-dioxo-5-{[2-(trimethylsilyl)ethoxy]methyl}-1H,2H,3H,5H-pyrrolo[3,4-b]carbazole-10-carbonitrile]",> 10 µM
13,"Cc1c2c(c(CN)c3c4ccccc4n(COCC[Si](C)(C)C)c13)C(=O)N(Cc1ccccc1)C2=O [10-(aminomethyl)-2-benzyl-4-methyl-5-{[2-(trimethylsilyl)ethoxy]methyl}-1H,2H,3H,5H-pyrrolo[3,4-b]carbazole-1,3-dione]",> 10 µM
14,"Cc1c2c(c(C#N)c3c4cc(Cl)ccc4n(COCC[Si](C)(C)C)c13)C(=O)N(C)C2=O [8-chloro-2,4-dimethyl-1,3-dioxo-5-{[2-(trimethylsilyl)ethoxy]methyl}-1H,2H,3H,5H-pyrrolo[3,4-b]carbazole-10-carbonitrile]",> 10 µM

# The next lines start with the values.
row,IC50,SMILES
1,> 10 µM,"Cc1c2c(c(CNC(=O)CN(C)C)c3c4ccccc4n(COCC[Si](C)(C)C)c13)C(=O)N(C)C2=O [N-[(2,4-dimethyl-1,3-dioxo-5-{[2-(trimethylsilyl)ethoxy]methyl}-1H,2H,3H,5H-pyrrolo[3,4-b]carbazol-10-yl)methyl]-2-(dimethylamino)acetamide]"
2,> 10 µM,"Cc1c2c(c(CNC(=O)CN(C)C)c3c1[nH]c1ccccc13)C(=O)N(Cc1ccccc1)C2=O [{[({2-benzyl-4-methyl-1,3-dioxo-1H,2H,3H,5H-pyrrolo[3,4-b]carbazol-10-yl}methyl)carbamoyl]methyl}dimethylazanium chloride]"
3,> 10 µM,"Cc1cc2c(c3c4ccccc4n(COCC[Si](C)(C)C)c13)C(=N)N(CCN(C)C)C2=O [4-[2-(dimethylamino)ethyl]-3-imino-8-methyl-10-{[2-(trimethylsilyl)ethoxy]methyl}-4,10-diazatetracyclo[7.7.0.0^{2,6}.0^{11,16}]hexadeca-1(9),2(6),7,11(16),12,14-hexaen-5-one]"
4,5.5 µM,"NCc1nc2c(c3c1[nH]c1ccccc13)CNC2=O [8-(aminomethyl)-4,7,10-triazatetracyclo[7.7.0.0^{2,6}.0^{11,16}]hexadeca-1(9),2(6),7,11(16),12,14-hexaen-5-one hydrochloride]"
5,7 µM,"Cc1nc2c(c3c4ccccc4n(CCN(C)C)c13)CNC2=O [10-[2-(dimethylamino)ethyl]-8-methyl-4,7,10-triazatetracyclo[7.7.0.0^{2,6}.0^{11,16}]hexadeca-1(9),2(6),7,11(16),12,14-hexaen-5-one]"
6,8 µM,"CN(C)CC(=O)NCc1nc2c(c3c1[nH]c1ccccc13)CNC2=O [2-(dimethylamino)-N-({5-oxo-4,7,10-triazatetracyclo[7.7.0.0^{2,6}.0^{11,16}]hexadeca-1(9),2(6),7,11(16),12,14-hexaen-8-yl}methyl)acetamide]"
7,1.5 µM,"Cc1cc(C)c(S(=O)(=O)NCc2nc3c(c4c2[nH]c2ccccc24)CNC3=O)c(C)c1 [2,4,6-Trimethyl-N-(3-oxo-1,2,3,6-tetrahydro-2,4,6-triaza-cyclopenta[c]fluoren-5-ylmethyl)-benzene-sulfonamide]"
